Values quoted from earlier work, collected in US20130004575A1, “CONTROLLED RELEASE FORMULATIONS USING INTELLIGENT POLYMERS” (VALEANT INTERNATIONAL (BARBADOS) SRL, priority 1997, published 2013).

Settings: room temperature

## CC1(C)O[C@@H]2[C@@H](CO[C@@]3(COS(N)(=O)=O)OC(C)(C)O[C@@H]23)O1 [topiramate, 2,3:4,5-bis-O-(1-methylethylidene)-β-D-fructopyranose sulfamate]
  solubility of topiramate in water: about 9.8 mg/mL
